From patent publication US5391486A, “Physiologically active substance BE-16627” (Banyu Pharmaceutical Co., Ltd., priority 1989, dated 1995)

Legend:
Elastase = Elastase (Sus scrofa, UniProt P00772); assay: Elastase inhibition in vitro (substrate B: Succinylalanyl-prolyl-alanyl-methylcumarylamide); format: biochemical; conditions: porcine
Experimental: (§1) An inhibitory activity of BE-16627A and B to various proteases including stromelysin and collagenase was determined by an in-vitro test. As stromelysin (human), prostromelysin prepared by genetic engineering (Celltech., GB) was used by treating it with trypsin (10 μg/ml) at 37° C. for 10 minutes and inhibiting a residual trypsin activity with soybean trypsin inhibitor (50 μg/ml).
Substrate B: Succinylalanyl-prolyl-alanyl-methylcumarylamide

Papain = target: T1, Papain (Carica papaya, UniProt P00784); assay: Papain inhibition in vitro (substrate A: 3H casein); format: biochemical; conditions: papaya latex
T1 construct: from tissue; host or cells: Papaya latex
T1 sequence (P00784 134-345): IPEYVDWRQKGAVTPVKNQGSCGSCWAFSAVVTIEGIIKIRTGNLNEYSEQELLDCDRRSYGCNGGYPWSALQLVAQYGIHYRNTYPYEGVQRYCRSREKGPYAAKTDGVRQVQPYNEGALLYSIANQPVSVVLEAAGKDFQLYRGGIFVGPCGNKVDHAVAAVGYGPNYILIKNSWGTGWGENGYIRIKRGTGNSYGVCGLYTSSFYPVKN
Experimental: as §1
(§2) Substrate A: ^3 Hcasein

[1] = test system: mouse cultured cancer cells (P388); assay: cells; format: cell-based
Solubility = format: physicochemical
Thermolysin = Thermolysin (Bacillus thermoproteolyticus, UniProt P00800); assay: Thermolysin inhibition in vitro (substrate A: 3H casein); format: biochemical, Bacillus thermo-proteolyticus
Experimental: as §1, §2

Collagenase = Collagenase inhibition in vitro (substrate A: 3H casein); format: biochemical; conditions: Chlostridium histriticum
Experimental: as §1, §2

Chymotrypsin = Chymotrypsin (Bos taurus, UniProt P00766); assay: Chymotrypsin inhibition in vitro (substrate A: 3H casein); format: biochemical; conditions: bovine
Experimental: as §1, §2

metal enzymes = assay: Inhibitory activity to various proteases (metal enzymes versus others); format: biochemical; conditions: in words, from Table 1
Experimental: as §1

Stromelysin = target: T2, Stromelysin (Homo sapiens, UniProt P08254); assay: Stromelysin inhibition in vitro (substrate A: 3H casein); format: biochemical, Human (Recombinant); conditions: for inhibition of stromelysin (human) relative to other enzymes: in words, from Table 1, next collagenase and thermolysin; for IC50: stromelysin, human recombinant, substrate A (3H casein)
T2 construct: prostromelysin prepared by genetic engineering (Celltech., GB) was used by treating it with trypsin; purchased Celltech., GB
Experimental: As stromelysin (human), prostromelysin prepared by genetic engineering (Celltech., GB) was used by treating it with trypsin (10 μg/ml) at 37° C. for 10 minutes and inhibiting a residual trypsin activity with soybean trypsin inhibitor (50 μg/ml).
as §2

Pepsin = Pepsin (Sus scrofa, UniProt P00791); assay: Pepsin inhibition in vitro (substrate A: 3H casein); format: biochemical; conditions: porcine
Experimental: as §1, §2

Trypsin = target: T3, Trypsin (Bos taurus, UniProt P00760); assay: Trypsin inhibition in vitro (substrate A: 3H casein); format: biochemical; conditions: bovine
T3 sequence (P00760 24-246): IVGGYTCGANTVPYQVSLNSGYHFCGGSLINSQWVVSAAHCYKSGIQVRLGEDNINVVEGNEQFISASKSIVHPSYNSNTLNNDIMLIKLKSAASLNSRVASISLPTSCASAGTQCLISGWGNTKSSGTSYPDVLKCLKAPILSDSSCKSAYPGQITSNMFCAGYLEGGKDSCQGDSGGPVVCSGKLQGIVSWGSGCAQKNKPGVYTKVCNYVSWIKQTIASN
Experimental: as §1, §2

[2] = in an organic solvent such as chloroform, ethyl acetate, benzene, hexane and the like

T2 sequence (P08254 100-477): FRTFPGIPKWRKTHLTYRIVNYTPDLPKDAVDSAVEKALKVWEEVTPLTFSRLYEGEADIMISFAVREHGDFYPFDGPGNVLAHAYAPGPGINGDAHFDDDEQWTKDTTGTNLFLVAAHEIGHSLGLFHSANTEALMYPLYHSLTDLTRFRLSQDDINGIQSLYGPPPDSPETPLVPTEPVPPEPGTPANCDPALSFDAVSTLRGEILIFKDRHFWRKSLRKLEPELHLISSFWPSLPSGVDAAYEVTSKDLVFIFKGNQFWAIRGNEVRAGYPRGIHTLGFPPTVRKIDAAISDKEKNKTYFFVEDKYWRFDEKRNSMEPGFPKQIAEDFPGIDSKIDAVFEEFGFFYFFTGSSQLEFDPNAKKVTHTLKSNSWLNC
Chain of Pepsin (P00791 60-385): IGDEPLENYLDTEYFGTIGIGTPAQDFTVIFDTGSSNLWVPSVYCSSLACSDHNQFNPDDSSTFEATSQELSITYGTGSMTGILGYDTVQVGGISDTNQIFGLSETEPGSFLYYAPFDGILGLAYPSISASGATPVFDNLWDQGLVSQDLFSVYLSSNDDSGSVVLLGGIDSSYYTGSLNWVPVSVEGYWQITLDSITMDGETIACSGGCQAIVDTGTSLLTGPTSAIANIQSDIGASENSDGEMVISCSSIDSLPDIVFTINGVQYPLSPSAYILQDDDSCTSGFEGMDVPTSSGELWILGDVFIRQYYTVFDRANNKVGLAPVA
Chain of Elastase (P00772 27-266): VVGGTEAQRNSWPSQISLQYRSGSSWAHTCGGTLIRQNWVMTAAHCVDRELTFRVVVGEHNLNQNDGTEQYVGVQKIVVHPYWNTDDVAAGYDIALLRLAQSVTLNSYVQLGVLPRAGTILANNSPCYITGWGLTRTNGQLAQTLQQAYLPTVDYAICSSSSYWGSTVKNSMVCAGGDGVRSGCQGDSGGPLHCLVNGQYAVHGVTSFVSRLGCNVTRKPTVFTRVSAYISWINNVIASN
Chain of Thermolysin (P00800 233-548): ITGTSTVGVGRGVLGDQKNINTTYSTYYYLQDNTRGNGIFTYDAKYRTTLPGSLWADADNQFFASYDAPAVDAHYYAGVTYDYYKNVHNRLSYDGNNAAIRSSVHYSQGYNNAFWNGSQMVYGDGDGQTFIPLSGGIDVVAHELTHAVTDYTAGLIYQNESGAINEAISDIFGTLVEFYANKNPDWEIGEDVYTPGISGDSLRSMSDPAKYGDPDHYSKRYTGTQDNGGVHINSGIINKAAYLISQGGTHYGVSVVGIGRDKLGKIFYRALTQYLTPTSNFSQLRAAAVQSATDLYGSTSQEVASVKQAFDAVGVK

Q: For CCCC(CC(=O)NO)C(=O)NC(CO)C(=O)NC(C(=O)O)C(C)C (stereo not drawn) [BE-16627A], which IC50 (Elastase) is on record?
A: The IC50 was over 276 µM.

Q: What about the IC50 (Papain) of the same compound?
A: The IC50 was 138 µM.

Q: And the cytotoxicity [1]?
A: The cytotoxicity was “low cytotoxicity”.

Q: What about the IC50 ([1]; Mus musculus, P388, read-out: IC50 value (cytotoxic test)) of the same compound?
A: The IC50 was at least 100 mg/L.

Q: What about the Solubility (Solubility; in an alkaline water) of the same compound?
A: Its Solubility is “readily soluble”.

Q: And the Solubility (Solubility; [2])?
A: The Solubility was “almost insoluble”.

Q: What about the IC50 (Thermolysin) of the same compound?
A: Its IC50 is 19.3 µM.

Q: And the IC50 (Collagenase)?
A: The IC50 was 11.6 µM.

Q: What about the IC50 (Chymotrypsin) of the same compound?
A: Its IC50 is over 276 µM.

Q: What about the “inhibition of the activity of metal enzymes” value (metal enzymes) of the same compound?
A: Its value is “specifically inhibited”.

Q: And the “inhibition of stromelysin (human) relative to other enzymes” value (Stromelysin)?
A: Its value is “most strongly inhibited”.

Q: What about the IC50 (Stromelysin) of the same compound?
A: Its IC50 is 5 µM.

Q: What about the IC50 (Pepsin) of the same compound?
A: Its IC50 is over 276 µM.

Q: What about the IC50 (Trypsin) of the same compound?
A: The IC50 was over 276 µM.

Q: For CC(C)CC(CC(=O)NO)C(=O)NC(CO)C(=O)NC(C(=O)O)C(C)C (stereo not drawn) [BE-16627B], which IC50 (Elastase) is on record?
A: Its IC50 is over 266 µM.

Q: What about the IC50 (Papain) of the same compound?
A: Its IC50 is over 266 µM.

Q: And the cytotoxicity [1]?
A: Its cytotoxicity is “low cytotoxicity”.

Q: What about the Solubility (Solubility; in an alkaline water) of the same compound?
A: The Solubility was “readily soluble”.

Q: What about the Solubility (Solubility; [2]) of the same compound?
A: Its Solubility is “almost insoluble”.

Q: What about the IC50 (Thermolysin) of the same compound?
A: Its IC50 is 2.4 µM.

Q: What about the IC50 (Collagenase) of the same compound?
A: Its IC50 is 2.7 µM.

Q: What about the IC50 (Chymotrypsin) of the same compound?
A: The IC50 was over 266 µM.

Q: And the “inhibition of the activity of metal enzymes” value (metal enzymes)?
A: Its value is “specifically inhibited”.

Q: And the “inhibition of stromelysin (human) relative to other enzymes” value (Stromelysin)?
A: Its value is “most strongly inhibited”.

Q: What about the IC50 (Stromelysin) of the same compound?
A: Its IC50 is 0.58 µM.

Q: And the IC50 (Pepsin)?
A: Its IC50 is over 266 µM.

Q: And the IC50 (Trypsin)?
A: Its IC50 is over 266 µM.
